Key:
Experiment in all cases: relative viability (nuclei count vs DMSO), 5 days (fraction); higher = more cells survive
LK-2 = test system: LK-2
Procedure, shortened: (§1)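 Relative viability equals treated-well nuclei counts divided by vehicle-well nuclei counts. Counts came from 4× images of lung cancer cell lines grown in 1536-well plates for 5 days after pin-tool dosing on the day after seeding. Dosing used one drug alone or a fixed anchor-drug dose plus five library-drug doses (not always all listed) in √10 steps, and values are medians of duplicate plates.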

NCI-H2085 = test system: NCI-H2085
Procedure, shortened: as §1

SW 1573 = test system: SW 1573
Procedure, shortened: as §1

NCI-H650 = test system: NCI-H650
Procedure, shortened: as §1

NCI-H460 = test system: NCI-H460
Procedure, shortened: as §1

NCI-H2228 = test system: NCI-H2228
Procedure, shortened: as §1

ChaGo-K-1 = test system: ChaGo-K-1
Procedure, shortened: as §1

NCI-H1944 = test system: NCI-H1944
Procedure, shortened: as §1

NCI-H2347 = test system: NCI-H2347
Procedure, shortened: as §1

A-427 = test system: A-427
Procedure, shortened: as §1

NCI-H1666 = test system: NCI-H1666
Procedure, shortened: as §1

NCI-H520 = test system: NCI-H520
Procedure, shortened: as §1

NCI-H358 = test system: NCI-H358
Procedure, shortened: as §1

NCI-H441 = test system: NCI-H441
Procedure, shortened: as §1

NCI-H1355 = test system: NCI-H1355
Procedure, shortened: as §1

NCI-H322M = test system: NCI-H322M
Procedure, shortened: as §1

NCI-H1650 = test system: NCI-H1650
Procedure, shortened: as §1

NCI-H838 = test system: NCI-H838
Procedure, shortened: as §1

NCI-H3122 = test system: NCI-H3122
Procedure, shortened: as §1

H3255 = test system: H3255
Procedure, shortened: as §1

NCI-H1755 = test system: NCI-H1755
Procedure, shortened: as §1

EKVX = test system: EKVX
Procedure, shortened: as §1

Question: What does the source list for `Cc1cnc(-c2cnc(NCCNc3ccc(C#N)cn3)nc2-c2ccc(Cl)cc2Cl)[nH]1` + CC(=O)c1c(C)c2cnc(Nc3ccc(N4CCNCC4)cn3)nc2n(C2CCCC2)c1=O [Palbociclib] (partner 0.5 µM)?
Answer: relative viability (LK-2; first compound 0.08 µM): 0.754; relative viability (LK-2; first compound 0.253 µM): 0.645; relative viability (LK-2; first compound 2.53 µM): 0.583; relative viability (NCI-H2085; first compound 0.08 µM): 0.469; relative viability (NCI-H2085; first compound 0.253 µM): 0.509; relative viability (NCI-H2085; first compound 0.8 µM): 0.504; relative viability (NCI-H2085; first compound 2.53 µM): 0.561; relative viability (SW 1573; first compound 0.08 µM): 0.387; relative viability (SW 1573; first compound 0.253 µM): 0.336; relative viability (SW 1573; first compound 0.8 µM): 0.368; relative viability (SW 1573; first compound 2.53 µM): 0.146; relative viability (NCI-H650; first compound 0.08 µM): 0.311; relative viability (NCI-H650; first compound 0.253 µM): 0.334; relative viability (NCI-H650; first compound 0.8 µM): 0.317; relative viability (NCI-H650; first compound 2.53 µM): 0.351; relative viability (NCI-H460; first compound 0.08 µM): 0.154; relative viability (NCI-H460; first compound 0.253 µM): 0.0849; relative viability (NCI-H460; first compound 0.8 µM): 0.135; relative viability (NCI-H460; first compound 2.53 µM): 0.146; relative viability (NCI-H2228; first compound 0.08 µM): 0.83; relative viability (NCI-H2228; first compound 0.253 µM): 0.716; relative viability (NCI-H2228; first compound 0.8 µM): 0.734; relative viability (NCI-H2228; first compound 2.53 µM): 0.648; relative viability (ChaGo-K-1; first compound 0.08 µM): 0.929; relative viability (ChaGo-K-1; first compound 0.253 µM): 0.807; relative viability (ChaGo-K-1; first compound 0.8 µM): 0.903; relative viability (ChaGo-K-1; first compound 2.53 µM): 0.833; relative viability (NCI-H1944; first compound 0.08 µM): 0.341; relative viability (NCI-H1944; first compound 0.8 µM): 0.366; relative viability (NCI-H1944; first compound 2.53 µM): 0.322; relative viability (NCI-H2347; first compound 0.08 µM): 0.411; relative viability (NCI-H2347; first compound 0.253 µM): 0.406; relative viability (NCI-H2347; first compound 0.8 µM): 0.438; relative viability (NCI-H2347; first compound 2.53 µM): 0.493; relative viability (A-427; first compound 0.08 µM): 0.537; relative viability (A-427; first compound 0.253 µM): 0.539; relative viability (A-427; first compound 0.8 µM): 0.567; relative viability (A-427; first compound 2.53 µM): 0.563; relative viability (NCI-H1666; first compound 0.08 µM): 0.607; relative viability (NCI-H1666; first compound 0.253 µM): 0.626; relative viability (NCI-H1666; first compound 0.8 µM): 0.615; relative viability (NCI-H1666; first compound 2.53 µM): 0.609; relative viability (NCI-H520; first compound 0.08 µM): 0.332; relative viability (NCI-H520; first compound 0.253 µM): 0.202; relative viability (NCI-H520; first compound 0.8 µM): 0.224; relative viability (NCI-H520; first compound 2.53 µM): 0.265; relative viability (NCI-H358; first compound 0.08 µM): 0.13; relative viability (NCI-H358; first compound 0.253 µM): 0.14; relative viability (NCI-H358; first compound 0.8 µM): 0.134; relative viability (NCI-H358; first compound 2.53 µM): 0.143; relative viability (NCI-H441; first compound 0.08 µM): 0.224; relative viability (NCI-H441; first compound 0.8 µM): 0.258; relative viability (NCI-H441; first compound 2.53 µM): 0.185; relative viability (NCI-H1355; first compound 0.08 µM): 0.427; relative viability (NCI-H1355; first compound 0.253 µM): 0.383; relative viability (NCI-H1355; first compound 0.8 µM): 0.407; relative viability (NCI-H1355; first compound 2.53 µM): 0.383; relative viability (NCI-H322M; first compound 0.08 µM): 0.467; relative viability (NCI-H322M; first compound 0.253 µM): 0.553; relative viability (NCI-H322M; first compound 0.8 µM): 0.477; relative viability (NCI-H322M; first compound 2.53 µM): 0.588; relative viability (NCI-H1650; first compound 0.08 µM): 0.368; relative viability (NCI-H1650; first compound 0.253 µM): 0.306; relative viability (NCI-H1650; first compound 0.8 µM): 0.306; relative viability (NCI-H1650; first compound 2.53 µM): 0.258; relative viability (NCI-H838; first compound 0.08 µM): 0.259; relative viability (NCI-H838; first compound 0.253 µM): 0.256; relative viability (NCI-H838; first compound 0.8 µM): 0.253; relative viability (NCI-H838; first compound 2.53 µM): 0.389; relative viability (NCI-H3122; first compound 0.08 µM): 0.178; relative viability (NCI-H3122; first compound 0.8 µM): 0.181; relative viability (NCI-H3122; first compound 2.53 µM): 0.188; relative viability (H3255; first compound 0.08 µM): 0.299; relative viability (H3255; first compound 0.253 µM): 0.34; relative viability (H3255; first compound 0.8 µM): 0.317; relative viability (H3255; first compound 2.53 µM): 0.306; relative viability (NCI-H1755; first compound 0.08 µM): 0.418; relative viability (NCI-H1755; first compound 0.253 µM): 0.443; relative viability (NCI-H1755; first compound 0.8 µM): 0.446; relative viability (NCI-H1755; first compound 2.53 µM): 0.438; relative viability (EKVX; first compound 0.08 µM): 0.493; relative viability (EKVX; first compound 0.253 µM): 0.316; relative viability (EKVX; first compound 0.8 µM): 0.417; relative viability (EKVX; first compound 2.53 µM): 0.444

From the supplement of paper PMC10307832
